Assay results published in article PMC7760838, “Synthesis, Biological, and Computational Evaluation of Antagonistic, Chiral Hydrobenzoin Esters of Arecaidine Targeting mAChR M1” (Pharmaceuticals, 2020).

Legend:
[1] = biological target: T1, human mAChR M5 (Homo sapiens, UniProt P08912); assay: competitive radioligand binding assay with [3H]NMS on CHO cell membranes, M5; conditions: n ≥ 3, ± standard deviation, read-out: Inhibition constants (Ki) M5
T1 construct: host or cells: CHO-K1
T1 sequence (P08912 1-532): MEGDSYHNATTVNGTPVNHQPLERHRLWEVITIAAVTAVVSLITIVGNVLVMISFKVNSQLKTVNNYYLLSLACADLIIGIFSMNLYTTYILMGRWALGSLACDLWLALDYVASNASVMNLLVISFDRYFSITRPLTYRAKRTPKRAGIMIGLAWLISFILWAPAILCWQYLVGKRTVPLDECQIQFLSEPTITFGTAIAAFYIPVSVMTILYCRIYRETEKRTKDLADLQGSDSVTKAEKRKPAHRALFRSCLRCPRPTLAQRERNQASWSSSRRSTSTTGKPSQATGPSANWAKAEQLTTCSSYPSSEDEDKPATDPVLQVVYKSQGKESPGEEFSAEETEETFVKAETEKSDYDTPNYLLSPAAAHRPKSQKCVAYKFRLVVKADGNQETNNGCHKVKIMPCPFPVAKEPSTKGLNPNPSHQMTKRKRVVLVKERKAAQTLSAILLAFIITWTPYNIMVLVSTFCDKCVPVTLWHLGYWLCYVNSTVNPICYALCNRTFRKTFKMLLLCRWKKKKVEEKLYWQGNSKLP
Protocol: (§1) Cell membranes bearing human mAChRs M1-M5 were prepared as described previously. In short, stably transfected CHO cells were grown to confluence in T175 flasks, washed with ice-cold DPBS, and suspended in 2 mL 10 mM Tris/HCl, 1 mM EDTA-buffer (pH 7.4), and 200 µL protease inhibitor using a cell scraper. A cell homogenate was prepared by passing the cell suspension through a G29 needle and subsequently centrifuged (10 min, 1000× g, 4 °C). Ultracentrifugation of the supernatant (30 min, 100,000× g, 4 °C) yielded a membrane pellet, which was suspended in 125 µL 50 mM Tris/HCl-buffer (pH 7.4) per T175 flask and stored at −80 °C. Ten confluent T175 flask were processed for one batch.
(§2) The membrane-bound activity was recovered by filtration through GF/B filter paper pre-soaked in 0.1 % PEI and measured with a liquid scintillation counter. Maximum binding was measured by using 5 µL plain DMSO, and nonspecific binding was measured by using 5 µL 1 µM scopolamine in DMSO. […] Then, 3–12 µL membrane suspension were used per tube. IC50 values were calculated by a variable slope logistic regression using at least five distinct concentrations of test compound, pipetted in triplicates.

[2] = biological target: T2, mAChR M1 (Homo sapiens, UniProt P11229); assay: competitive radioligand binding assay with [3H]NMS on CHO cell membranes, M1; conditions: for Ki: CHO cell membranes, [3H]NMS, n ≥ 3, ± standard deviation, read-out: Inhibition constants (Ki) M1
T2 construct: host or cells: CHO-K1
T2 sequence (P11229 1-460): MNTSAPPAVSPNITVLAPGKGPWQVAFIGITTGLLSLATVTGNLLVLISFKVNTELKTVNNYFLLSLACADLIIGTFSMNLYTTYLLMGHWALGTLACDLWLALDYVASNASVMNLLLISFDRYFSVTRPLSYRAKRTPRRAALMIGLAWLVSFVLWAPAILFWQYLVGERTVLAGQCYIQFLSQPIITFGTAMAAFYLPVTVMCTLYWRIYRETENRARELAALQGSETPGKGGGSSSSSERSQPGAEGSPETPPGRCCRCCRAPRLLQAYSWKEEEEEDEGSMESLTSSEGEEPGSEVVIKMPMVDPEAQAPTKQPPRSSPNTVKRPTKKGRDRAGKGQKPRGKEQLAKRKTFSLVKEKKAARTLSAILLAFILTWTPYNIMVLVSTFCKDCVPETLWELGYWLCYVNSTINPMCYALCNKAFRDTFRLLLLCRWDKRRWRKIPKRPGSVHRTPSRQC
Protocol: as §1, §2

[3] = biological target: T3, human mAChR M4 (Homo sapiens, UniProt P08173); assay: competitive radioligand binding assay with [3H]NMS on CHO cell membranes, M4; conditions: n ≥ 3, ± standard deviation, read-out: Inhibition constants (Ki) M4
T3 construct: host or cells: CHO-K1
T3 sequence (P08173 1-479): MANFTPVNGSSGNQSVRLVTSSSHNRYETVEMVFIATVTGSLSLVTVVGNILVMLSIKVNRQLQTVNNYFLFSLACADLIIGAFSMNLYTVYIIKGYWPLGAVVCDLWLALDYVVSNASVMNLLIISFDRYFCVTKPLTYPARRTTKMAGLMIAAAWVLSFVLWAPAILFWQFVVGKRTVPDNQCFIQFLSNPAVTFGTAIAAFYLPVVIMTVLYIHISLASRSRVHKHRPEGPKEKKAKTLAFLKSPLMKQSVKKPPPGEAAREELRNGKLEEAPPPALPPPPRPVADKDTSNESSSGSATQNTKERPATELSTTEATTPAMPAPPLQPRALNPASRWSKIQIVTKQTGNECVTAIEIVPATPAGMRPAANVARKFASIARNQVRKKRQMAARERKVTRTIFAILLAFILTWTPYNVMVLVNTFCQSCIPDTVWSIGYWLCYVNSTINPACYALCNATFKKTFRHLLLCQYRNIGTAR
Protocol: as §1, §2

[4] = biological target: T2, mAChR M1; assay: Fluo-4 direct calcium assay, agonist mode, CHO-M1 cells; format: cell-based; conditions: 0.001-100 µM
Protocol: (§3) For the Fluo-4 direct^TM calcium assay kit (invitrogen), 100 µL of a 5 × 10^5 cells/mL suspension of CHO-M1 cells were seeded in black clear bottom 96-well plates (Corning). After settling of the cells for 24 h, the kit was performed according to the supplier’s recommendation. In detail, the media was removed, and 50 µL of Hanks-balanced salt solution (HBSS; Sigma Aldrich) were added, followed by 50 µL of the Fluo-4 buffer solution (including probenecid). The 96-well plates were incubated for 60 min at 37 °C in the dark. For the agonist assay, 100 µL of a double-concentrated dilution series of carbachol (positive control), 1, 2, and 3 were added with the end concentration of 100, 10, 1, 0.1, 0.01 and 0.001 µM in duplicates. The relative fluorescence was measured with an excitation wavelength of 494 nm and an emission wavelength of 516 nm. For the antagonist assay, 50 µL of a 4-fold concentrated dilution series of scopolamine hydrochloride (positive control), 1, 2, and 3 were added in duplicates. Subsequently a 40 µM stock solution of carbachol was added to all wells, and the relative fluorescence was measured with an excitation wavelength of 494 nm and an emission wavelength of 516 nm. Stock solution of 1, 2, and 3 were in DMSO with a final concentration of at most 1% of DMSO. All experiments were performed at least in three repetitions.

[5] = biological target: T4, human mAChR M3 (Homo sapiens, UniProt P20309); assay: competitive radioligand binding assay with [3H]NMS on CHO cell membranes, M3; conditions: n ≥ 3, ± standard deviation, read-out: Inhibition constants (Ki) M3
T4 construct: host or cells: CHO-K1
Protocol: as §1, §2

[6] = biological target: T2, mAChR M1; assay: Fluo-4 direct calcium assay, antagonist mode (block of carbachol response), CHO-M1 cells; format: cell-based; conditions: 20 µM carbachol
Protocol: as §3

[7] = HPLC-logP determination; format: physicochemical; conditions: HPLC on apHERA stationary phase (5 µm, 10 × 6 mm), pH 7.4; read-out: HPLC-logPow pH7.4
[8] = stability in DPBS at 37 °C (UV-HPLC); format: physicochemical; conditions: for decomposition after 60 h: Sidak's multiple comparisons test; for decomposed after 2 h: linear interpolation between 0 h and 10 h
Protocol: (§4) First, 1089 µL DPBS or Ham’s F12 nutrient mixture were mixed with 11 µL of 10 mM stock solution of 1, 2, or 3 in DMSO (final DMSO content: 1%) and agitated at 37 °C. Then, 80 µL of the solution was analyzed by UV-HPLC (216 nm) using an XSelect™ (HSS T3, 3.5 μm, 100 × 4.6 mm) stationary phase and 40% acetonitrile in 25 mM (NH4)H2PO4 buffer (pH 9.3) at a flow of 1 mL/min (k1,2 = 5.6, k3 = 5.9). The fraction of stable compounds was calculated as the area under the curve of the compound peak for each combination of compound and matrix related to the 0 h time point with 100%. Three non-consecutive HPLC analyses were performed for each time point, combination of compounds, and matrix.

[9] = biological target: T5, human mAChR M2 (Homo sapiens, UniProt P08172); assay: competitive radioligand binding assay with [3H]NMS on CHO cell membranes, M2; conditions: n ≥ 3, ± standard deviation, read-out: Inhibition constants (Ki) M2
T5 construct: host or cells: CHO-K1
T5 sequence (P08172 1-466): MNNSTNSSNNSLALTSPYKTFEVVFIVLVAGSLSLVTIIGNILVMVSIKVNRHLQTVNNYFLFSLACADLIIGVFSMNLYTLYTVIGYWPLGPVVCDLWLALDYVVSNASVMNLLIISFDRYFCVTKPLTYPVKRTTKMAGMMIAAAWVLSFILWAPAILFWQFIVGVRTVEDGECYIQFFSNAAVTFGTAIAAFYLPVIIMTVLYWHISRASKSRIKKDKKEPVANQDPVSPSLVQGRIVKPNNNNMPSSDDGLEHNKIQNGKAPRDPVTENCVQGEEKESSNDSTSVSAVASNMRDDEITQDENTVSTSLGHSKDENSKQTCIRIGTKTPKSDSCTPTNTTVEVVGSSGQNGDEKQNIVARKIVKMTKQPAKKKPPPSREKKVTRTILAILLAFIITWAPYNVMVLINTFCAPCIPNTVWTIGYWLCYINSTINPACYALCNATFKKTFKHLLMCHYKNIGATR
Protocol: as §1, §2

[10] = stability in Ham's F12 cell culture medium at 37 °C (UV-HPLC); format: physicochemical; conditions: for decomposed after 2 h: linear interpolation between 0 h and 10 h
Protocol: as §4

[11] = pH 7.4; cited from earlier work

T4 sequence (P20309 whole entry): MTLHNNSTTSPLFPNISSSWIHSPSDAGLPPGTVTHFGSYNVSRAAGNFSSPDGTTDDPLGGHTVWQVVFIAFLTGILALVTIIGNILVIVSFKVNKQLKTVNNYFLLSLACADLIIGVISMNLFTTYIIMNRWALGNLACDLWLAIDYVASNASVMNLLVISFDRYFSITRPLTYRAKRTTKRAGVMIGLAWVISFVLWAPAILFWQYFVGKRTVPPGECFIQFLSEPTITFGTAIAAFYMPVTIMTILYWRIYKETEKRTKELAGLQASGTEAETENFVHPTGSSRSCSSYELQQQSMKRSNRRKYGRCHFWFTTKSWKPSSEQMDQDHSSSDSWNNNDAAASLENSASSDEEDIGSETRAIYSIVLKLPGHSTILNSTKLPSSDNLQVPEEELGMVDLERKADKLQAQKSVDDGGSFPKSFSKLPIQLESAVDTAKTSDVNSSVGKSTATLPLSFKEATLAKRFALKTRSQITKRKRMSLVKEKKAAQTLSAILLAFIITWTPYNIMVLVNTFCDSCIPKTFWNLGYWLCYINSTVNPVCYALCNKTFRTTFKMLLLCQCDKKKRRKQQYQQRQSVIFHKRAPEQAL

| Ki [1] [nM] | Ki [2] [nM] | Ki [3] [nM] | calcium release (agonistic activity) [4] | Ki [5] [nM] | functionality (block of calcium response to carbachol) [6] | chromatographic logD [7] | decomposition after 60 h [8] | decomposed after 2 h [8] [%] | Ki [9] [nM] | decomposed after 2 h [10] [%] | selectivity between M1 and M2 ([2]; Ki M2 divided by Ki M1) [fold] | M1 over M4 subtype selectivity ([2]; Ki M4 divided by Ki M1, Ki values of this work) [fold] | decomposition after 60 h [10] | Compound | HPLC-logPow pH7.4 [11] |
| --- | --- | --- | --- | --- | --- | --- | --- | --- | --- | --- | --- | --- | --- | --- | --- |
| 970 ± 90 | 380 ± 90 | 1600 ± 200 | no increase in calcium release | 3200 ± 500 | antagonistic binding | 2.39 ± 0.1 | decomposed to the same extent | 0.8 | 3700 ± 1000 | 2.5 | – | – | – | CN1CCC=C(C(=O)O[C@@H](c2ccccc2)[C@H](O)c2ccccc2)C1 (racemic) [compound 3, Rac. (1S,2R)-2-hydroxy-1,2-diphenylethyl 1-methyl-1,2,5,6-tetrahydropyridine-3-carboxylate] | – |
| – | – | – | – | – | – | – | – | – | – | – | – | – | – | CN1CCC=C(C(=O)OC(c2ccccc2)c2ccccc2)C1 [arecaidine diphenylmethyl ester] | 3.32 ± 0.04 |
| 600 ± 75 | 99 ± 19 | 700 ± 300 | no increase in calcium release | 1300 ± 600 | antagonistic binding | 2.24 ± 0.12 | decomposed to the same extent | 0.8 | 1900 ± 300 | 2.5 | 19 | 7 | significantly stronger compared to 2 | CN1CCC=C(C(=O)O[C@H](c2ccccc2)[C@H](O)c2ccccc2)C1 [compound 1, (1R,2R)-(+)-2-hydroxy-1,2-diphenylethyl 1-methyl-1,2,5,6-tetrahydropyridine-3-carboxylate] | – |
| 1300 ± 300 | 800 ± 200 | 2700 ± 600 | no increase in calcium release | 1600 ± 300 | antagonistic binding | 2.24 ± 0.12 | decomposed to the same extent | 0.8 | 8000 ± 2000 | 2.5 | – | – | – | CN1CCC=C(C(=O)O[C@@H](c2ccccc2)[C@@H](O)c2ccccc2)C1 [compound 2, (1S,2S)-(−)-2-hydroxy-1,2-diphenylethyl 1-methyl-1,2,5,6-tetrahydropyridine-3-carboxylate] | – |
